Results taken from patent publication US7514452B2, “2-furancarboxylic acid hydrazides and pharmaceutical compositions containing the same” (Dainippon Pharmaceutical Co., Ltd, priority 2002, dated 2009).

Key:
glucagon receptor [1] = target: glucagon receptor (Rattus norvegicus, UniProt P30082); assay: Experiment for glucagon binding inhibition, rat hepatic membrane (125I-glucagon); conditions: male SD rat hepatic membrane, 125I-glucagon 50 pM, 25° C. for 30 minutes; read-out: Glucagon binding inhibitory activity IC50 (nM) Rat
Protocol: (§1) The preparation of membrane from mouse and rat livers was carried out according to the method described in Bioorg. Med. Chem. Lett. 1992, 12, 915-918 in this experiment and ^125I-glucagon binding activity was measured with these membranes as glucagon receptor's samples. Livers were removed from male SD rats (about 250 g body weight per rat) and male ddY mice (about 30 g body weight per mouse). […] The homogenate was centrifuged for 15 minutes at 30,000×g. […] The precipitaion thus obtained was used as a hepatic membrane sample. […] The mixture was incubated at 25° C. for 30 minutes. […] The filter was washed 3 times with 50 mM Tris-HCl buffer (pH 7.2), and the radioactivity of the filter was measured by a γ counter (ARC-360, Aloka Co., Ltd.). […] Each experiment was carried out in duplicate. […] The concentration at 50% inhibition of binding (IC50) was calculated using a pseudo Hill plot.

glucagon receptor [2] = target: glucagon receptor (Mus musculus, UniProt Q61606); assay: Experiment for glucagon binding inhibition, mouse hepatic membrane (125I-glucagon); conditions: male ddY mouse hepatic membrane, 125I-glucagon 50 pM, 25° C. for 30 minutes; read-out: Glucagon binding inhibitory activity IC50 (nM) Mouse
Protocol: as §1

Sequence of glucagon receptor (Mus musculus, UniProt Q61606) (Q61606 27-485): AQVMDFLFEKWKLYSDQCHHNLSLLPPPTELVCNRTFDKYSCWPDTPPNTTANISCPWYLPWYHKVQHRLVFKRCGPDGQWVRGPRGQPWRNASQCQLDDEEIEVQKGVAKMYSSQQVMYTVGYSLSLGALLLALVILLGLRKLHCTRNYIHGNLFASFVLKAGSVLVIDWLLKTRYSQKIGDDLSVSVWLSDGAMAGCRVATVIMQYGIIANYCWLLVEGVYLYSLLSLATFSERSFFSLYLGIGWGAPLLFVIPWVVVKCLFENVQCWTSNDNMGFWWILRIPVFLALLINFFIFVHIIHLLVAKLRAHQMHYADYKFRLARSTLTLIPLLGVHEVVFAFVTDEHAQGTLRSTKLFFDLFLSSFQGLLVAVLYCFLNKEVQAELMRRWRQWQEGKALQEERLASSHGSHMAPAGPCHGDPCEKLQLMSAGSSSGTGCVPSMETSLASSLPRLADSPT
Sequence of glucagon receptor (Rattus norvegicus, UniProt P30082) (P30082 27-485): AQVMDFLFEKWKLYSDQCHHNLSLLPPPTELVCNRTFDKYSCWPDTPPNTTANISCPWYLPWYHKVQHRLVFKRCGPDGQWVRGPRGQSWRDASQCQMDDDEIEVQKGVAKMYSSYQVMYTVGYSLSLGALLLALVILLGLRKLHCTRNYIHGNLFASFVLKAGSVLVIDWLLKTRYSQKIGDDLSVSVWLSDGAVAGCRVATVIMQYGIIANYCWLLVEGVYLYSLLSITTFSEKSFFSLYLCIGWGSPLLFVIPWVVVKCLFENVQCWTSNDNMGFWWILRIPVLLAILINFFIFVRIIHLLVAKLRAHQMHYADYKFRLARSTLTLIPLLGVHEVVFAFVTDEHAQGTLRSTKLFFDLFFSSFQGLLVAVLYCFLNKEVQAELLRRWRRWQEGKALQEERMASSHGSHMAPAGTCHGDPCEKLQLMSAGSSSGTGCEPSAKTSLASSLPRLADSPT

| Compound | IC50 (glucagon receptor [1]) [nM] | IC50 (glucagon receptor [2]) [nM] |
| --- | --- | --- |
| N#Cc1cc(C(=O)NNC(=O)c2occc2-c2ccccc2Oc2ccccc2)ccc1O [Example 13, 3-(2-phenoxyphenyl)-2-furancarboxylic acid 2-(3-cyano-4-hydroxybenzoyl)hydrazide] | 190 | 180 |
| N#Cc1cc(C(=O)NNC(=O)c2occ(C=CCCc3ccccc3)c2-c2ccccc2)ccc1O [Example 59, 3-Phenyl-4-(4-phenyl-1-butenyl)-2-furancarboxylic acid 2-(3-cyano-4-hydroxybenzoyl)hydrazide] | 35 | 84 |
| N#Cc1cc(C(=O)NNC(=O)c2occc2-c2cccs2)ccc1O [Example 60, 3-(2-thienyl)-2-furancarboxylic acid 2-(3-cyano-4-hydroxybenzoyl)hydrazide] | 120 | 160 |
| CS(=O)(=O)Nc1ccccc1COc1cccc(-c2ccoc2C(=O)NNC(=O)c2ccc(O)c([N+](=O)[O-])c2)c1 [Example 138, 3-[3-(2-Methylsulfonylaminobenzyloxy)phenyl]-2-furancarboxylic acid 2-(4-hydroxy-3-nitrobenzoyl)hydrazide] | 15 | 23 |
| N#Cc1cc(C(=O)NNC(=O)c2occ(COC(=O)NCCc3ccccc3)c2-c2ccccc2)ccc1O [Example 54, 4-(Phenethylaminocarbonyloxymethyl)-3-phenyl-2-furancarboxylic acid 2-(3-cyano-4-hydroxybenzoyl)hydrazide] | 150 | 380 |
| N#Cc1cc(C(=O)NNC(=O)c2occc2-c2ccccc2OCc2ccccc2)ccc1O [Example 5, 3-(2-benzyloxyphenyl)-2-furancarboxylic acid 2-(3-cyano-4-hydroxybenzoyl)hydrazide] | 200 | 130 |
| N#Cc1cc(C(=O)NNC(=O)c2occc2-c2ccccc2Cc2ccccc2)ccc1O [Example 8, 3-(2-benzylphenyl)-2-furancarboxylic acid 2-(3-cyano-4-hydroxybenzoyl)hydrazide] | 170 | 310 |
| CC(C)Oc1ccccc1-c1ccoc1C(=O)NNC(=O)c1ccc(O)c(C#N)c1 [Example 10, 3-(2-isopropoxyphenyl)-2-furancarboxylic acid 2-(3-cyano-4-hydroxybenzoyl)hydrazide] | 180 | 230 |
| N#Cc1cc(C(=O)NNC(=O)c2occ(COCc3ccccc3)c2-c2ccccc2)ccc1O [Example 56, 4-Benzyloxymethyl-3-phenyl-2-furancarboxylic acid 2-(3-cyano-4-hydroxybenzoyl)hydrazide] | 150 | 220 |
| N#Cc1cc(C(=O)NNC(=O)c2occ(-c3ccccc3)c2-c2ccccc2)ccc1O [Example 18, 3,4-diphenyl-2-furancarboxylic acid 2-(3-cyano-4-hydroxybenzoyl)hydrazide] | 41 | 120 |
| CC(=O)Nc1ccccc1COc1cccc(-c2ccoc2C(=O)NNC(=O)c2ccc(O)c([N+](=O)[O-])c2)c1 [Example 179, 3-[3-(2-Acetylaminobenzyloxy)phenyl]-2-furancarboxylic acid 2-(4-hydroxy-3-nitrobenzoyl)hydrazide] | 63 | 28 |
| N#Cc1cc(C(=O)NNC(=O)c2occc2-c2ccc(Oc3ccccc3)cc2)ccc1O [Example 16, 3-(4-phenoxyphenyl)-2-furancarboxylic acid 2-(3-cyano-4-hydroxybenzoyl)hydrazide] | 87 | 180 |
| N#Cc1cc(C(=O)NNC(=O)c2occ(COC(=O)Nc3ccccc3)c2-c2ccccc2)ccc1O [Example 53, 4-(phenylaminocarbonyloxymethyl)-3-phenyl-2-furancarboxylic acid 2-(3-cyano-4-hydroxybenzoyl)hydrazide] | 75 | 240 |
| N#Cc1cc(C(=O)NNC(=O)c2occc2-c2ccccc2OCCc2ccccc2)ccc1O [Example 12, 3-(2-phenethyloxyphenyl)-2-furancarboxylic acid 2-(3-cyano-4-hydroxybenzoyl)hydrazide] | 85 | 170 |
| O=C(NNC(=O)c1occ(-c2ccccc2)c1-c1ccccc1)c1ccc(O)c([N+](=O)[O-])c1 [Example 19, 3,4-diphenyl-2-furancarboxylic acid 2-(4-hydroxy-3-nitrobenzoyl)hydrazide] | 86 | 97 |

More lines, now with the values ahead:

| IC50 (glucagon receptor [1]) [nM] | IC50 (glucagon receptor [2]) [nM] | Compound |
| --- | --- | --- |
| 95 | 93 | N#Cc1cc(C(=O)NNC(=O)c2occc2-c2cccc(OCc3ccncc3)c2)ccc1O [Example 102, 3-[3-(4-pyridylmethyloxy)phenyl]-2-furancarboxylic acid 2-(3-cyano-4-hydroxybenzoyl)hydrazide] |
| 330 | 140 | N#Cc1cc(C(=O)NNC(=O)c2occc2-c2cccc(Oc3ccccc3)c2)ccc1O [Example 2, 3-(3-phenoxyphenyl)-2-furancarboxylic acid 2-(3-cyano-4-hydroxybenzoyl)hydrazide] |
| 58 | 200 | N#Cc1cc(C(=O)NNC(=O)c2occc2-c2ccccc2)ccc1O [Example 61, 3-phenyl-2-furancarboxylic acid 2-(3-cyano-4-hydroxybenzoyl)hydrazide] |
| 21 | 99 | Cc1cc(C)c(C)c(COc2cccc(-c3ccoc3C(=O)NNC(=O)c3ccc(O)c(C#N)c3)c2)c1C [Example 1, 3-[3-(2,3,5,6-tetramethylbenzyloxy)phenyl]-2-furancarboxylic acid 2-(3-cyano-4-hydroxybenzoyl)hydrazide] |
| 140 | 450 | CCCOc1ccccc1-c1ccoc1C(=O)NNC(=O)c1ccc(O)c(C#N)c1 [Example 11, 3-(2-propoxyphenyl)-2-furancarboxylic acid 2-(3-cyano-4-hydroxybenzoyl)hydrazide] |
| 3.4 | 13 | Cc1cc(C)c(C)c(COc2cccc(-c3coc(C(=O)NNC(=O)c4ccc(O)c(C#N)c4)c3-c3ccccc3)c2)c1C [Example 99, 3-phenyl-4-[3-(2,3,5,6-tetramethylbenzyloxy)phenyl]-2-furancarboxylic acid 2-(3-cyano-4-hydroxybenzoyl)hydrazide] |
| 110 | 310 | N#Cc1cc(C(=O)NNC(=O)c2occc2-c2cccc(OCC(O)c3ccccc3)c2)ccc1O (centres unmarked) [Example 108, 3-[3-(2-Hydroxy-2-phenylethoxy)phenyl]-2-furancarboxylic acid 2-(3-cyano-4-hydroxybenzoyl)hydrazide] |
| 30 | 52 | N#Cc1cc(C(=O)NNC(=O)c2occc2-c2cccc(OCc3ccccc3)c2)ccc1O [Example 3, 3-(3-benzyloxyphenyl)-2-furancarboxylic acid 2-(3-cyano-4-hydroxybenzoyl)hydrazide] |
| 210 | 75 | Cc1cc(C)c(C)c(COc2ccccc2-c2ccoc2C(=O)NNC(=O)c2ccc(O)c(C#N)c2)c1C [Example 9, 3-[2-(2,3,5,6-tetramethylbenzyloxy)phenyl]-2-furancarboxylic acid 2-(3-cyano-4-hydroxybenzoyl)hydrazide] |
| 9.2 | 24 | Cc1cc(C)c(C)c(COc2cccc(-c3ccoc3C(=O)NNC(=O)c3ccc(O)c([N+](=O)[O-])c3)c2)c1C [Example 20, 3-[3-(2,3,5,6-tetramethylbenzyloxy)phenyl]-2-furancarboxylic acid 2-(4-hydroxy-3-nitrobenzoyl)hydrazide] |
| 27 | 170 | Cc1cc(C)c(C)c(COc2ccc(-c3ccoc3C(=O)NNC(=O)c3ccc(O)c(C#N)c3)cc2)c1C [Example 15, 3-[4-(2,3,5,6-tetramethylbenzyloxy)phenyl]-2-furancarboxylic acid 2-(3-cyano-4-hydroxybenzoyl)hydrazide] |
| 5.8 | 9.1 | Cc1cc(C)c(C)c(COc2cccc(-c3c(-c4ccccc4)coc3C(=O)NNC(=O)c3ccc(O)c([N+](=O)[O-])c3)c2)c1C [Example 100, 4-phenyl-3-[3-(2,3,5,6-tetramethylbenzyloxy)phenyl]-2-furancarboxylic acid 2-(4-hydroxy-3-nitrobenzoyl)hydrazide] |
| 99 | 160 | N#Cc1cc(C(=O)NNC(=O)c2occc2-c2ccc(OCc3ccccc3)cc2)ccc1O [Example 17, 3-(4-benzyloxyphenyl)-2-furancarboxylic acid 2-(3-cyano-4-hydroxybenzoyl)hydrazide] |
| 33 | 28 | O=C(NNC(=O)c1occc1-c1cccc(OCc2ccccc2)c1)c1ccc(O)c([N+](=O)[O-])c1 [Example 101, 3-(3-benzyloxyphenyl)-2-furancarboxylic acid 2-(4-hydroxy-3-nitrobenzoyl)hydrazide] |
| 28 | 130 | N#Cc1cc(C(=O)NNC(=O)c2occc2-c2cccc(OCCc3ccccc3)c2)ccc1O [Example 4, 3-(3-phenethyloxyphenyl)-2-furancarboxylic acid 2-(3-cyano-4-hydroxybenzoyl)hydrazide] |
| 1.5 | 4 | Cc1cc(C)c(C)c(COc2cccc(-c3c(-c4ccccc4)coc3C(=O)NNC(=O)c3ccc(O)c(C#N)c3)c2)c1C [Example 98, 4-phenyl-3-[3-(2,3,5,6-tetramethylbenzyloxy)phenyl]-2-furancarboxylic acid 2-(3-cyano-4-hydroxybenzoyl)hydrazide] |
